Entries after “also recorded” stand apart in the source; their conditions may differ. Like-named read-outs stand apart in the source and are kept apart here. Blank lines part the entries; values can stand above or below the molecule they belong to. Where no end group is shown, it is not given here.
How the values were obtained:
ERK2 [1] = target: T1, ERK2 (Rattus norvegicus, UniProt P63086); type: biochemical
ERK2 [2] = target: T1, ERK2; experiment: Kinetics of Sub-F phosphorylation by ERK2 at saturating Lig-D; type: biochemical
ERK2 [3] = target: T1, ERK2; experiment: Dose-response effect of docking ligands on ERK2 phosphorylation of Sub-D; type: biochemical
ERK2 [4] = target: T1, ERK2; experiment: Dose-response effect of docking ligands on ERK2 phosphorylation of Sub-F; type: biochemical
ERK2 [5] = target: T1, ERK2; experiment: Inhibition patterns for the phosphorylation of Sub-F by ERK2; type: biochemical
ERK2 [6] = target: T1, ERK2; experiment: Inhibition patterns for the phosphorylation of Sub-D by ERK2; type: biochemical
ERK2 [7] = target: T1, ERK2; settings: protein substrate; cited from earlier work
ERK•Ets-1 complex = settings: cited from earlier work

T1 sequence (P63086 whole entry): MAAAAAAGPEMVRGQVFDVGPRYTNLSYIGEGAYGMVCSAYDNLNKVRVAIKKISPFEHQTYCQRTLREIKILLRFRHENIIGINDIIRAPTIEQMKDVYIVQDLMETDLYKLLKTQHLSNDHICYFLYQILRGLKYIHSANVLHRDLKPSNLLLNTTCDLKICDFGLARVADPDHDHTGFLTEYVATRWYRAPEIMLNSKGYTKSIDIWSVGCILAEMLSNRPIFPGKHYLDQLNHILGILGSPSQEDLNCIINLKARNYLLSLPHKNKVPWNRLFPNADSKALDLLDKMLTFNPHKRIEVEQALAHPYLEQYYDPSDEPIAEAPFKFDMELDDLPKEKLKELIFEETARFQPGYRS

Molecule: CC(=O)N[C@@H](Cc1ccccc1)C(=O)N[C@@H](CCC(N)=O)C(=O)N[C@@H](CCCNC(=N)N)C(=O)N[C@@H](CCCCN)C(=O)N[C@H](C(=O)N[C@@H](CC(C)C)C(=O)N[C@@H](CCC(N)=O)C(=O)N[C@@H](CCCNC(=N)N)C(=O)N[C@@H](CCCNC(=N)N)C(=O)N[C@@H](CC(N)=O)C(=O)N[C@@H](CC(C)C)C(=O)N[C@@H](CCCCN)C(=O)NCC(=O)N[C@@H](CC(C)C)C(=O)N[C@@H](CC(N)=O)C(=O)N[C@@H](CC(C)C)C(=O)N[C@@H](CC(N)=O)C(=O)N[C@@H](CC(C)C)C(N)=O)[C@@H](C)O [Lig-D]
IC50 (ERK2 [3]): 30 ± 4 µM | EC50 (ERK2 [4]): 10 ± 8 µM

Molecule: Ac-YAPRAPAKLAFQFPSR-NH2 [Lig-F]
Mechanism of inhibition (ERK2 [5]; varied MgATP, fixed Sub-F): Noncompetitive | Mechanism of inhibition (ERK2 [5]; varied Sub-F, fixed MgATP): Competitive | Effect on Sub-D phosphorylation (kobs) (ERK2 [3]; Fig. 5A, Sub-D 3 μM, 1 mM MgATP, increasing ligand): no effect on kobs for the phosphorylation of Sub-D; also recorded: no effect on the ability of ERK2 to phosphorylate Sub-D | IC50 (ERK2 [4]): 35 ± 3 µM | Effect on Sub-F phosphorylation (kobs) (ERK2 [4]; Fig. 5B, Sub-F 15 μM, 1 mM MgATP, increasing ligand): competitively inhibits Sub-F

B1: Ets: murine (His6-tagged)Ets1(1-138), protein substrate of ERK2 (protein, UniProt P27577 1-138, looked up, fragment)
chain: MKAAVDLKPTLTIIKTEKVDLELFPSPDMECADVPLLTPSSKEMMSQALKATFSGFTKEQQRLGIPKDPRQWTETHVRDWVMWAVNEFSLKGVDFQKFCMSGAALCALGKECFLELAPDFVGDILWEHLEILQKEDVK
modifications: His6 tag
kcat (ERK2 [1]; Table 1, fit to eqn. 2, 27 °C, pH 7.4, 2 nM ERK2): 17 ± 1 S^−1 | Kinetic mechanism of phosphorylation (ERK2 [7]): random-order mechanism | kcat/Km (ERK2 [7]): 6e+06 M⁻¹ s⁻¹ | stabilization of the ERK•Ets-1 complex by Ets-1 N-terminus docking to the DRS (ERK•Ets-1 complex): approximately 10 fold

Further lines, results first:

Ki (ERK2 [1]): 3.3 ± 1.1 µM | Ki (ERK2 [2]): 5 ± 2 µM
Molecule: YAEPLTPRILAKWEWPA-NH2 [Sub-F]

Mechanism of inhibition (ERK2 [6]; varied MgATP, fixed Sub-D): competitive pattern for towards MgATP^2- | Mechanism of inhibition (ERK2 [6]; varied Sub-D, fixed MgATP): Noncompetitive | Mechanism of inhibition (ERK2 [5]; varied MgATP, fixed Sub-F): competitive pattern for towards MgATP^2- | Mechanism of inhibition (ERK2 [5]; varied Sub-F, fixed MgATP): Noncompetitive
Molecule: Nc1ncnc2c1ncn2[C@@H]1O[C@H](COP(=O)([O-])OP(=O)([O-])O)[C@@H](O)[C@H]1O.[Mg+2] [MgADP]

Reference: publication PMC3422614 (Biochemistry, 2011)
